In patent publication US6642215B2 (Leo Pharma A/S, priority 2001, dated 2003):
Like-named read-outs stand apart in the source and are kept apart here.

How the values were obtained:
[1] = tested on: NF-κB; test: NF-κB-dependent luciferase reporter assay in LPS-stimulated THP-1 cells; assay type: cell-based, human; conditions: 1 μM compound, then 1 μg/ml LPS 5 h
Text: Luciferase plasmids: The NF-κB-luciferase reporter plasmid (pBIIX) was a gift from Marja Jäättelä and Ida S. Mathiasen, the Danish Cancer Society. It was constructed by inserting a synthetic fragment with two copies of the sequence (5′-ACAGAGGGGACTTTCCGAGAG-3′ separated by four nucleotides (5′-ATCT-3′) in front of a mouse fos promoter in a plasmid pfLUC (a pBluescript-based plasmid with a firefly luciferase encoding sequence) (K. Saksela and D. Baltimore, Mol. Cell Biol. 13, 1993, pp. 3698-3705) The NF-κB binding site from the mouse Igκ light chain is underlined (M. Grilli et al., Int. Rev, Cytol. 143, 1993, pp. 1-62). A Renilla luciferase plasmid with a thymidine kinase promoter (pRL-TK vector) was used as a control for transfection efficiency and was obtained from Promega Inc., Madison, Wis. Plasmid DNA was prepared and purified using the QIAGEN EndoToxin-free Maxiprep-500 kit (QIAGEN, Hilden, Germany). […]
The cell lysate was assayed for luciferase activity using the Dual luciferase kit as described by the manufacturer (Promega). […] Firefly luciferase activity was corrected for differences in transfection efficiency by normalizing it to the measured Renilla luciferase activity.

[2] = tested on: HT-1080 cells; test: DNA synthesis (tritiated thymidine incorporation) in HT-1080 cells; assay type: cell-based; conditions: Homo sapiens, 144 h incubation, mean ± SD of two to four experiments
Procedure: (§1) DNA synthesis: NYH SCLC, HT-1080, Colo-320, PC-3 and H460 cells (7.5×10^3 cells/ml) were seeded in tissue culture vessels and the test compound were added 2 h after plating. Following an incubation for 144 h tritiated thymidine (5 CI/mmol, Amersham Pharmacia Biotech) was added to the culture at the concentration of 1 μCi/ml, and the cells were incubated for additional 4 h. The incorporated thymidine was measured with a β-counter. Each compound concentration was tested in triplicate.

[3] = tested on: NYH SCLC cells; test: DNA synthesis (tritiated thymidine incorporation) in NYH SCLC cells; assay type: cell-based
Procedure: as §1

[4] = tested on: NYH Xenografts; test: NYH xenografts in nude mice, tumour growth; assay type: in vivo, NMRI nu/nu mice
Procedure: (§2) All of the animal experiments were conducted according to the guidelines and ethical standards of the Danish Committee for Animal Experiments. Female NMRI nu/nu mice 6 weeks of age were purchased from M&B (Ry, Denmark). The mice were allowed an acclimatisation period of 1-3 weeks before start of the experiments. The nude mice were housed in Scantainers under semi-sterile conditions and all handling of mice was performed in a laminar flow bench.
NYH Xenografts. NMRI nu/nu mice were injected with 1×10^7 cells in 0.2 ml media s.c. in both flanks and tumour growth was measured twice weekly. The tumour area was used as expression of the tumour size and was calculated from two perpendicular diameters measured with a digital caliper. Compound A was given for fourteen consecutive days by oral gavage from day 4-6 when the tumour size was 24-30 mm^2. Each treatment group consisted of 10 mice.
(§3) Statistical Methods In the animal models, tumour sizes were expressed by the mean of the trends in each treatment group. The trend is the linear increment or tumour size, where tumour size is the square root of the (mean) area of the tumour(s). Comparison with controls was expressed as T/C % and calculated as follows:
A=(overall mean tumour size at baseline+mean trend of treatment*intended days of treatment)
B=(overall mean tumour size at baseline+mean trend of control*intended days of treatment)
Overall mean tumour size at baseline=pooling all treatments this is the mean of all baseline values. For each mouse the baseline value is calculated as the square root of the (mean) area of the tumour(s).
Significance was tested with the Bonferroni correction. This correction is a method for adjusting (lowering) the significance level so the overall finding of one significant difference due to chance is around 5 percent.

[5] = tested on: HT 1080 Xenografts; test: HT 1080 xenografts in nude mice, tumour growth; assay type: in vivo, NMRI nu/nu mice; conditions: HT-1080 xenograft, 50 mg/kg, oral gavage
Procedure: as §2
HT 1080 Xenografts. NMRI nu/nu mice were injected with 2×10^6 cells in 0.2 ml media s.c. in each flank and tumour size was measured as described for the NYH model. Compound A was given for fourteen days by oral gavage from day 4 when the tumour size was 22-24 mm^2. Each treatment group consisted of 10 mice.
as §3
A=(overall mean tumour size at baseline+mean trend of treatment*intended days of treatment) […]
Overall mean tumour size at baseline=pooling all treatments this is the mean of all baseline values. For each mouse the baseline value is calculated as the square root of the (mean) area of the tumour(s). […]

[6] = tested on: NF-κB; test: NF-κB-dependent luciferase assay in HT-1080 cells, TNF-α stimulation; assay type: cell-based, human; conditions: Homo sapiens, compound 24 h before TNF-α 50 ng/ml 6 h, mean ± SD
Procedure: The NF-κB-luciferase reporter plasmid (pBIIX) and pRL-TK control vector described in Example 1 were used for the luciferase assay,
The HT-1080 cells were seeded at a density of 3×10^4 cells/cm^2 in 6 well-plates. The following day, the cells were co-transfected with construct DNA and pRL-TK vector using FuGene Transfection Reagent. A mixture of 10 μl Fugene and 90 μl serum free medium (per well) was prepared and Incubated for 5 min at room temperature. Then, this mixture was transferred to a mixture of construct DNA (1.25 μg per well) and pRL-TK vector (0.25 μg per well), gently mixed, incubated for 15 min at room temperature and added to the cells. The cells were treated at 37° C. with compound A (10^−12−10^−5 M) or DMSO for 24 h before stimulation with TNF-α (50 ng/ml) for 6 h.
The cell lysate was assayed for luciferase activity using the Dual luciferase kit as described by the manufacturer (Promega). All transfections were performed in triplicate. Firefly luciferase activity was corrected for differences in transfection efficiency by normalizing it to the measured Renilla luciferase activity.
NF-κB activity was measured by the luciferase assay described in Example 1.

N#CNC(=Nc1ccncc1)NCCCCCCOc1ccc(Cl)cc1 [compound A, N-(6-(4-chlorophenoxy)hexyl)-N′-cyano-N″-(4-pyridyl)guanidine]
NF-κB-dependent luciferase activity, change ([1]; preincubation 2 h): small decrease
NF-κB-dependent induction of luciferase expression blocked ([1]; preincubation 24 h, relative to DMSO-treated cells): ~80%
IC50 [2]: 5.6 ± 0.3 nM
IC50 ([3]; NYH SCLC cells, 144 h incubation, mean ± SD of two to four experiments, read-out: DNA synthesis (IC50 nM)): 0.64 ± 0.06 nM
IC50 ([3]; incorporation of tritiated thymidine in NYH SCLC cells, read-out: NYH proliferation in vitro (IC50 nM)): 0.64 ± 0.06 nM
In vivo xenografts in nude mice T/C (%) ([4]; NYH SCLC xenograft, 50 mg/kg, oral gavage): −100%
NYH tumor growth in vivo (T/C in %) ([4]; nude mice with NYH SCLC tumours, 14 days of treatment with 20 mg/kg): −44%
In vivo xenografts in nude mice T/C (%) [5]: −77%
IC50 [6]: 2480 ± 775 nM
